Results published in patent US11760754B2, “Heterocyclic mitochondrial activity inhibitors and uses thereof” (UNIVERSITÉ DE MONTRÉAL, priority 2017, dated 2023).
pEC50: −log10 of the molar value. Like-named read-outs stand apart in the source and are kept apart here.

Legend:
OCI-AML3 cells = assay: OCI-AML3 cell growth inhibition, dose-response viability assay (CellTiterGlo); type: cell-based; settings: for pEC50: read-out: AML-3 EC50; for sensitivity of OCI-AML3 relative to OCI-AML5: dose-response curves OCI-AML3 and OCI-AML5
Procedure: Cell dose-response viability assays. […] In the initial screen, compounds were added to seeded cells in serial dilutions (10 dilutions, 1:3, starting from […] 20 μM), in duplicates.
(§1) The potency of the compounds of Example 6 at inhibiting OCI-AML3 cell growth was tested using a procedure similar to that described for Mutritinib in Example 1. […] Murine MLL-AF9 leukemia cells (female cells) were generated by infection with VSV-G-pseudotyped MSCV MLL-AF9 IRES Puro (subcloned from a construct by Frédéric Barabé, Laval U, Quebec, QC, Canada).
(§2) Compounds were added to seeded cells in serial dilutions from 10 μM to 0.5 nM, in duplicates or quadruplicates.

MLL-AF9 cells = assay: MLL-AF9 leukemia cell growth inhibition, dose-response viability assay (CellTiterGlo); type: cell-based, murine; settings: read-out: MLL-AF9 EC50
Procedure: as §1, §2

[1] = Homo sapiens, OCI-AML-3, 144 h, OCI-AML3 cells, 6 days of culture, CellTiterGlo

Row | Structure (SMILES) | pEC50 (OCI-AML3 cells; Homo sapiens, OCI-AML-3, 144 h) | pEC50 (MLL-AF9 cells; Mus musculus, MLL-AF9, 120 h) | other results
1 | FC(F)(F)c1ccc(/C=C/c2nc(COc3ccc(CCCCn4ccnn4)cc3)co2)cc1 [Compound 1, (E)-4-((4-(4-(1H-1,2,3-triazol-1-yl)butyl)phenoxy)methyl-2-(4-trifluoromethyl)styryl)oxazole, reference compound] | – | – | pEC50 (OCI-AML3 cells; [1]): 6.30 to 7.00; pEC50 (MLL-AF9 cells; Mus musculus, 120 h, MLL-AF9 cells, 5 days of culture, CellTiterGlo): 7.00 to 7.30
2 | FC(F)(F)Oc1ccc(/C=C/c2nc(COc3ccc(CCCCn4ccnn4)cc3)co2)cc1 [Compound 2] | 6.30 to 7.00 | 6.30 to 7.00 | –
3 | Fc1cc(Br)ccc1/C=C/c1nc(COc2ccc(CCCCn3ccnn3)cc2)co1 [Compound 3A, (E)-((4-(4-(1H-1,2,3-triazol-1-yl)butyl)phenoxy)methyl)-2-(4-bromo-2-fluorostyryl)oxazole] | – | – | pEC50 (OCI-AML3 cells; OCI-AML3 cells, 6 days of culture, CellTiterGlo): > 7.30; pEC50 (MLL-AF9 cells; MLL-AF9 cells, 5 days of culture, CellTiterGlo): > 7.30
4 | C[Si](C)(C)c1cn(CCCCc2ccc(OCc3coc(/C=C/c4ccc(Br)cc4F)n3)cc2)nn1 [Compound 3B, (E)-2-(4-Bromo-2-fluorostyryl)-4-((4-(4-(4-(trimethylsilyl)-1H-1,2,3-triazol-1-yl)butyl)phenoxy)methyl)oxazole] | – | 6.30 to 7.00 | pEC50 (OCI-AML3 cells; [1]): 6.00 to 6.30
5 | OCCc1cn(CCCCc2ccc(OCc3coc(/C=C/c4ccc(C(F)(F)F)cc4)n3)cc2)nn1 [Compound 4, (E)-2-(1-(4-(4-((2-(4-Trifluoromethyl)styryl)oxazol-4-yl)methoxy)phenyl)butyl-1H-1,2,3-triazol-4-yl)ethanol] | 5.00 to 6.00 | 6.00 to 6.30 | –
6 | OCCCCc1cn(CCCCc2ccc(OCc3coc(/C=C/c4ccc(C(F)(F)F)cc4)n3)cc2)nn1 [Compound 5] | 5.00 to 6.00 | 6.30 to 7.00 | –
7 | CCOC(=O)c1nnn(CCCCc2ccc(OCc3coc(/C=C/c4ccc(C(F)(F)F)cc4)n3)cc2)c1C(=O)OCC [Compound 6, (E)-diethyl 1-(4-(4-((2-(4-(trifluoromethyl)styryl)oxazol-4-yl)methoxy)phenyl)butyl)-1H-1,2,3-triazole-4,5-dicarboxylate] | 5.00 to 6.00 | 5.00 to 6.00 | –
8 | CNCc1cn(CCCCc2ccc(OCc3coc(/C=C/c4ccc(C(F)(F)F)cc4)n3)cc2)nn1 [Compound 7, (E)-N-methyl-1-(1-(4-(4-((2-(4-(trifluoromethyl)styryl)oxazol-4-yl)methoxy)phenyl)butyl)-1H-1,2,3-triazol-4-yl)methanamine] | 5.00 to 6.00 | 6.00 to 6.30 | –
9 | OC1(c2cn(CCCCc3ccc(OCc4coc(/C=C/c5ccc(C(F)(F)F)cc5)n4)cc3)nn2)CCCC1 [Compound 8, (E)-1-(1-(4-(4-((2-(4-(trifluoromethyl)styryl)oxazol-4-yl)methoxy)phenyl)butyl)-1H-1,2,3-triazol-4-yl)cyclopentanol] | 6.00 to 6.30 | 6.30 to 7.00 | –
10 | COc1cc2c(cc1OC)[C@@H]1C(=O)c3ccc4c(c3O[C@@H]1CO2)C=CC(C)(C)O4 [Deguelin, reference compound] | – | – | sensitivity of OCI-AML3 relative to OCI-AML5 (OCI-AML3 cells): more sensitive than OCI-AML5
11 | CC[C@H]1/C=C/C=C/C[C@@H](C)[C@H](O)[C@@](C)(O)C(=O)[C@@H](C)[C@H](O)[C@@H](C)C(=O)[C@@H](C)[C@H](O)[C@@H](C)/C=C/C(=O)O[C@@H]2[C@H](C)[C@H](CC1)O[C@]1(CC[C@H](C)[C@H](C[C@@H](C)O)O1)[C@H]2C [Oligomycin, reference compound] | – | – | sensitivity of OCI-AML3 relative to OCI-AML5 (OCI-AML3 cells): more sensitive than OCI-AML5
12 | C=C(C)[C@H]1Cc2c(ccc3c2O[C@@H]2COc4cc(OC)c(OC)cc4[C@@H]2C3=O)O1 [Rotenone, reference compound] | – | – | sensitivity of OCI-AML3 relative to OCI-AML5 (OCI-AML3 cells): more sensitive than OCI-AML5
13 | CNC(=O)CN1CCC(Oc2cc3c(Nc4cccc(Cl)c4F)ncnc3cc2OC)CC1 [Sapitinib, reference compound] | – | – | OCI-AML3 cells sensitive to the compound (dose response) (OCI-AML3 cells; OCI-AML3 cells): not

The next lines start with results.

Row | pEC50 (OCI-AML3 cells; Homo sapiens, OCI-AML-3, 144 h) | pEC50 (MLL-AF9 cells; Mus musculus, MLL-AF9, 120 h) | Structure (SMILES) | other results
14 | 5.00 to 6.00 | 6.00 to 6.30 | OCc1nnn(CCCCc2ccc(OCc3coc(/C=C/c4ccc(C(F)(F)F)cc4)n3)cc2)c1CO [Compound 9, (E)-(1-(4-(4-((2-(4-(trifluoromethyl)styryl)oxazol-4-yl)methoxy)phenyl)butyl)-1H-1,2,3-triazole-4,5-diyl)dimethanol] | –
15 | 6.30 to 7.00 | > 7.30 | O=S1(=O)CCN(Cc2cn(CCCCc3ccc(OCc4coc(/C=C/c5ccc(C(F)(F)F)cc5)n4)cc3)nn2)CC1 [Compound 10, (E)-4-((1-(4-(4-((2-(4-(trifluoromethyl)styryl)oxazol-4-yl)methoxy)phenyl)butyl)-1H-1,2,3-triazol-4-yl)methyl)thiomorpholine 1,1-dioxide] | –
16 | 5.00 to 6.00 | 5.00 to 6.00 | Fc1cc(C(F)(F)F)ccc1CCc1nc(COc2ccc(CCCCn3ccnn3)cc2)co1 [Compound 11, 4-((4-(4-(1H-1,2,3-triazol-1-yl)butyl)phenoxy)methyl)-2-(2-fluoro-4-(trifluoromethyl)phenethyl)oxazole] | –
17 | 6.00 to 6.30 | 6.30 to 7.00 | C#CCNC(=O)CCCCc1cn(CCCCc2ccc(OCc3coc(/C=C/c4ccc(C(F)(F)F)cc4)n3)cc2)nn1 [Compound 12, (E)-N-(prop-2-yn-1-yl)-5-(1-(4-(4-((2-(4-(trifluoromethyl)styryl)oxazol-4-yl)methoxy)phenyl)butyl)-1H-1,2,3-triazol-4-yl)pentanamide] | –
18 | 5.00 to 6.00 | 5.00 to 6.00 | NCCc1cn(CCCCc2ccc(OCc3coc(/C=C/c4ccc(C(F)(F)F)cc4)n3)cc2)nn1 [Compound 13, (E)-2-(1-(4-(4-((2-(4-(trifluoromethyl)styryl)oxazol-4-yl)methoxy)phenyl)butyl)-1H-1,2,3-triazol-4-yl)ethanamine] | –
19 | 5.00 to 6.00 | 6.00 to 6.30 | C#CCCC(=O)NCCc1cn(CCCCc2ccc(OCc3coc(/C=C/c4ccc(C(F)(F)F)cc4)n3)cc2)nn1 [Compound 14, (E)-N-(2-(1-(4-(4-((2-(4-(trifluoromethyl)styryl)oxazol-4-yl)methoxy)phenyl)butyl)-1H-1,2,3-triazol-4-yl)ethyl)pent-4-ynamide] | –
20 | 6.00 to 6.30 | 6.30 to 7.00 | O=S1(=O)CCN(Cc2cnnn2CCCCc2ccc(OCc3coc(/C=C/c4ccc(C(F)(F)F)cc4)n3)cc2)CC1 [Compound 15, (E)-4-((1-(4-(4-((2-(4-(trifluoromethyl)styryl)oxazol-4-yl)methoxy)phenyl)butyl)-1H-1,2,3-triazol-5-yl)methyl)thiomorpholine 1,1-dioxide] | –
21 | 5.00 to 6.00 | 6.30 to 7.00 | O=C(CCCn1ccnn1)c1ccc(OCc2coc(/C=C/c3ccc(C(F)(F)F)cc3)n2)cc1 [Compound 16, (E)-4-(1H-1,2,3-triazol-1-yl)-1-(4-((2-(4-(trifluoromethyl)styryl)oxazol-4-yl)methoxy)phenyl)butan-1-one] | –
22 | 6.30 to 7.00 | 7.00 to 7.30 | OC(CCCn1ccnn1)c1ccc(OCc2coc(/C=C/c3ccc(C(F)(F)F)cc3)n2)cc1 (centres unmarked) [Compound 17, (E)-4-(1H-1,2,3-triazol-1-yl)-1-(4-((2-(4-(trifluoromethyl)styryl)oxazol-4-yl)methoxy)phenyl)butan-1-ol] | –
23 | 5.00 to 6.00 | 6.00 to 6.30 | O=C(CCCn1ccnn1)c1ccc(OCc2coc(/C=C/c3ccc(OC(F)(F)F)cc3)n2)cc1 [Compound 18, (E)-4-(1H-1,2,3-triazol-1-yl)-1-(4-((2-(4-(trifluoromethoxy)styryl)oxazol-4-yl)methoxy)phenyl)butan-1-one] | –
24 | 6.30 to 7.00 | 6.30 to 7.00 | OC(CCCn1ccnn1)c1ccc(OCc2coc(/C=C/c3ccc(OC(F)(F)F)cc3)n2)cc1 (centres unmarked) [Compound 19, (E)-4-(1H-1,2,3-triazol-1-yl)-1-(4-((2-(4-(trifluoromethoxy)styryl)oxazol-4-yl)methoxy)phenyl)butan-1-ol] | –
25 | 6.00 to 6.30 | 6.30 to 7.00 | O=C(CCCn1ccnn1)c1ccc(OCc2coc(/C=C/c3ccc(Br)cc3F)n2)cc1 [Compound 20, (E)-1-(4-((2-(4-bromo-2-fluorostyryl)oxazol-4-yl)methoxy)phenyl)-4-(1H-1,2,3-triazol-1-yl)butan-1-one] | –
26 | 6.30 to 7.00 | 7.00 to 7.30 | OC(CCCn1ccnn1)c1ccc(OCc2coc(/C=C/c3ccc(Br)cc3F)n2)cc1 (centres unmarked) [Compound 21, (E)-1-(4-((2-(4-bromo-2-fluorostyryl)oxazol-4-yl)methoxy)phenyl)-4-(1H-1,2,3-triazol-1-yl)butan-1-ol] | –
27 | 6.00 to 6.30 | 6.30 to 7.00 | O=C(CCCn1ccnn1)c1ccc(OCc2coc(/C=C/c3ccc(C(F)(F)F)cc3F)n2)cc1 [Compound 22, (E)-1-(4-((2-(2-fluoro-4-(trifluoromethyl)styryl)oxazol-4-yl)methoxy)phenyl)-4-(1H-1,2,3-triazol-1-yl)butan-1-one] | –
28 | – | 6.00 to 6.30 | Fc1cc(C(F)(F)F)ccc1/C=C/c1nc(COc2ccc(CCCCn3cnnc3)cc2)co1 [Compound 135, (E)-4-((4-(4-(4H-1,2,4-triazol-4-yl)butyl)phenoxy)methyl)-2-(2-fluoro-4-(trifluoromethyl)styryl)oxazole] | –
29 | – | 6.30 to 7.00 | O=CNCCCCc1ccc(OCc2coc(/C=C/c3ccc(C(F)(F)F)cc3F)n2)cc1 [Compound 136, (E)-N-(4-(4-((2-(2-fluoro-4-(trifluoromethyl)styryl)oxazol-4-yl)methoxy)phenyl)butyl)formamide] | –
30 | – | 6.00 to 6.30 | O=S1(=O)CCN(CCCCc2ccc(OCc3coc(/C=C/c4ccc(C(F)(F)F)cc4F)n3)cc2)CC1 [Compound 137, (E)-4-(4-(4-((2-(2-fluoro-4-(trifluoromethyl)styryl)oxazol-4-yl)methoxy)phenyl)butyl)thiomorpholine 1,1-dioxide] | –
